Converted amounts (≈) assume the structure as drawn.
Assays:
[1] = tested on: Human immunodeficiency virus; test: Antiviral activity against HIV-CBL 20 infected in MT-4 cells assessed as viral replication measured after 4 days by ELISA; format: functional, organism-based; settings: Human immunodeficiency virus 1, CBL 20, MT4, 96 h
[2] = Cytotoxicity activity against human MCF7 cells assessed as reduction in cell viability measured after 72 hrs by MTT assay; format: toxicity, cell-based
[3] = Cytotoxicity activity against human MOLT-4 cells assessed as reduction in cell viability measured after 72 hrs by MTT assay; format: toxicity, cell-based
[4] = Cytotoxicity activity against human HL-60 cells assessed as reduction in cell viability measured after 72 hrs by MTT assay; format: toxicity, cell-based
[5] = Inhibition of maize HD2; design: species or system Zea mays
[6] = Inhibition of maize HD1-B; design: species or system Zea mays
[7] = Inhibition of maize HD1-A; design: species or system Zea mays
Pseudomonas aeruginosa = test: Antibacterial activity against Pseudomonas aeruginosa assessed as reduction in bacterial growth by broth microdilution method; format: functional, organism-based
Escherichia coli [8] = test: Antibacterial activity against Escherichia coli assessed as reduction in bacterial growth by broth microdilution method; format: functional, organism-based
Klebsiella pneumoniae [9] = test: Antibacterial activity against Klebsiella pneumoniae assessed as reduction in bacterial growth by broth microdilution method; format: functional, organism-based
[10] = tested on: Staphylococcus auricularis; test: Antibacterial activity against Staphylococcus auricularis assessed as reduction in bacterial growth by broth microdilution method; format: functional, organism-based
Bacillus subtilis [11] = test: Antibacterial activity against Bacillus subtilis assessed as reduction in bacterial growth by broth microdilution method; format: functional, organism-based
Rattus norvegicus [12] = test: Anti-inflammatory activity against carrageenan-induced acute paw edema in Wistar albino rat at 100 mg/kg assessed as inhibition of paw edema volume incubated for 3 hrs by Plethysmometric analysis relative to control; format: functional; design: scale not given: the % may be the effect or the level left
Rattus norvegicus [13] = test: Anti-inflammatory activity against carrageenan-induced acute paw edema in Wistar albino rat at 10 mg/kg assessed as inhibition of paw edema incubated for 3 hrs by Plethysmometric analysis relative to control; format: functional; design: scale not given: the % may be the effect or the level left
Rattus norvegicus [14] = test: Anti-inflammatory activity against carrageenan-induced acute paw edema in Wistar albino rat at 10 mg/kg assessed as inhibition of paw edema incubated for 5 hrs by Plethysmometric analysis relative to control; format: functional; design: scale not given: the % may be the effect or the level left
[15] = Cytotoxicity activity against human Eca-109 cells assessed as reduction in cell viability measured after 48 hrs by MTT assay; format: toxicity, cell-based
[16] = Cytotoxicity activity against human PC-3 cells assessed as reduction in cell viability measured after 48 hrs by MTT assay; format: toxicity, cell-based
[17] = Cytotoxicity activity against human SMMC-7721 cells assessed as reduction in cell viability measured after 48 hrs by MTT assay; format: toxicity, cell-based
[18] = tested on: Mycobacterium tuberculosis; test: Antitubercular activity against Mycobacterium tuberculosis H37Rv assessed as reduction in microbial growth by broth dilution method; format: functional
[19] = tested on: Mycobacterium tuberculosis; test: Antitubercular activity against Mycobacterium tuberculosis H37Rv assessed as reduction in bacterial growth by microplate alamar blue assay; format: functional
Bacillus subtilis [20] = test: Antibacterial activity against Bacillus subtilis MTCC 121 assessed as zone of inhibition at 800 ug/mL by disk diffusion method; format: functional; settings: read-out: IZ
Staphylococcus aureus = test: Antibacterial activity against Staphylococcus aureus 22 assessed as zone of inhibition at 800 ug/mL by disk diffusion method; format: functional; settings: read-out: IZ
Escherichia coli [21] = test: Antibacterial activity against Escherichia coli K12 assessed as zone of inhibition at 800 ug/mL by disk diffusion method; format: functional; settings: read-out: IZ
Klebsiella pneumoniae [22] = test: Antibacterial activity against Klebsiella pneumoniae assessed as zone of inhibition at 800 ug/mL by disk diffusion method; format: functional; settings: read-out: IZ
[23] = tested on: Human immunodeficiency virus 1; test: Antiviral activity against HIV-1; format: functional, organism-based
Cannabinoid receptor 1 = Cannabinoid receptor 1 (Rattus norvegicus, UniProt P20272); test: Binding affinity to rat CB1 receptor
Cannabinoid receptor 2 = Cannabinoid receptor 2 (Homo sapiens, UniProt P34972); test: Binding affinity to human recombinant CB2 receptor
Rattus norvegicus [24] = test: Antihypertensive activity in Wistar rat assessed as decrease in systolic blood pressure at 20 mg/kg, po measured after 0.5 to 2 hrs by tail cuff method; format: functional; settings: time 0.5-2 hrs
[25] = Toxicity in Nilaparvata lugens assessed as mortality at 0.8 mg/L relative to control; settings: at 0.8 µg/mL

Chain of Cannabinoid receptor 2 (P34972 whole entry): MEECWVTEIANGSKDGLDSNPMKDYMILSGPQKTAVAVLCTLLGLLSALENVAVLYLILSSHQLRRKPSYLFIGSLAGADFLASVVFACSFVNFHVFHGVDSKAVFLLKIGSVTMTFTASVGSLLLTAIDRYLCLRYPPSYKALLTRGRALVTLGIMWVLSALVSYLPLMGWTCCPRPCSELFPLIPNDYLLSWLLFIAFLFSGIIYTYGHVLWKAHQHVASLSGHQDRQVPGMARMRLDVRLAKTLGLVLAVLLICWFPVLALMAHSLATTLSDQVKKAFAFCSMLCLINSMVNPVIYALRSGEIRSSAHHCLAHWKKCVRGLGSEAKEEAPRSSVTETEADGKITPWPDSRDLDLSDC
Chain of Cannabinoid receptor 1 (P20272 whole entry): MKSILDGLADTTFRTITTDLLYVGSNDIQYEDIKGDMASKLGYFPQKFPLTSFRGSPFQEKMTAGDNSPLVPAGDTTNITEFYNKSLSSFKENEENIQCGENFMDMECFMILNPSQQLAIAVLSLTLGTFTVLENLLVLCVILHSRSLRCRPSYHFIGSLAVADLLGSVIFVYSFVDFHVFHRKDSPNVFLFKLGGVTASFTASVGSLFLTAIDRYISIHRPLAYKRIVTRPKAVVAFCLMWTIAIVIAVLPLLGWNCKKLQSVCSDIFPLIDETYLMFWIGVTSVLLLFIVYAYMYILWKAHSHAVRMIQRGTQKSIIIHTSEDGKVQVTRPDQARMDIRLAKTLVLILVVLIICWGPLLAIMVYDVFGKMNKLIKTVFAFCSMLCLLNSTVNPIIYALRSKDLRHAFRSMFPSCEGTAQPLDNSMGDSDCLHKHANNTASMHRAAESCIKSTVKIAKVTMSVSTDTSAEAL

O=[N+]([O-])c1ccccc1S(=O)(=O)c1ccccc1
EC50 [1]: 3.4 µM

CCOC(=O)c1cccn1S(=O)(=O)c1ccccc1[N+](=O)[O-]
EC50 [1]: 15.1 µM

COC(=O)c1c(C2C(=O)N(C)C(=O)N(C)C2=O)c(-c2ccccc2)n(-c2ccc(OC)c(S(=O)(=O)N3CCOCC3)c2)c1C(=O)OC
IC50 at 72 h [2]: 39 µM | IC50 at 72 h [3]: 25.5 µM | IC50 at 72 h [4]: 30.6 µM

CC(C(=O)c1cc(/C=C/C(=O)NO)n(C)c1)c1ccccc1 (stereo not given)
IC50 [5]: 0.112 µM | IC50 [6]: 0.015 µM | IC50 [7]: 0.028 µM

Cc1c[nH]c(C(=O)N/N=C(/N=N/c2ccccc2)c2ccccc2O)c1C
IC50 (Pseudomonas aeruginosa): 15.6 µM | IC50 (Escherichia coli [8]): 15.6 µM | IC50 (Klebsiella pneumoniae [9]): 15.6 µM | IC50 [10]: 460 µM | IC50 (Bacillus subtilis [11]): 460 µM

O=C(O)Cn1c(C(=O)O)c(C(=O)c2cccs2)c2sc(C(=O)O)cc21
Activity (Rattus norvegicus [12]): 36%

O=C(Nc1nnc(-c2ccccc2)s1)c1c[nH]cc1-c1ccc([N+](=O)[O-])cc1
Activity (Rattus norvegicus [13]): 76.24% | Activity (Rattus norvegicus [14]): 78.62%

CN1C(=O)C(c2ccc[nH]2)=C(c2c[nH]c3ccc(Br)cc23)C1=O
IC50 at 48 h [15]: 6.21 µM | IC50 at 48 h [16]: 2.16 µM | IC50 at 48 h [17]: 29.7 µM

CCOc1cc(C2OC(c3ccc(-n4cccc4)cc3)=NN2C(C)=O)ccc1O (stereo not given)
MIC [18]: 0.2 µg/mL

O=C(N/N=C/c1ccc(C(c2cccc([N+](=O)[O-])c2)c2ccc(/C=N/NC(=O)c3ccncc3)[nH]2)[nH]1)c1ccncc1
MIC [19]: 7.9 µg/mL (≈ 14.1 µM)

CCCC/C=C/CCC(O)CCCCCCCC(=O)Nn1c(C)ccc1C (stereo not given)
zone of inhibition at 800 µg/mL (Bacillus subtilis [20]): 18 mm | zone of inhibition at 800 µg/mL (Staphylococcus aureus): 20 mm | zone of inhibition at 800 µg/mL (Escherichia coli [21]): 22 mm | zone of inhibition at 800 µg/mL (Klebsiella pneumoniae [22]): 21 mm

CCCCCCC(O)C/C=C/CCCCCCCCC(=O)Nn1c(C)ccc1C (stereo not given)
zone of inhibition at 800 µg/mL (Bacillus subtilis [20]): 19 mm | zone of inhibition at 800 µg/mL (Staphylococcus aureus): 18 mm | zone of inhibition at 800 µg/mL (Escherichia coli [21]): 21 mm | zone of inhibition at 800 µg/mL (Klebsiella pneumoniae [22]): 20 mm

Cc1ccc(C)n1-c1ccc(C(=O)n2[nH]c(=O)c3ccccc3c2=O)cc1
MIC [18]: 0.4 µg/mL

CCCCc1c(COC(N)=O)cn(Cc2ccncc2)c1Sc1cc(Cl)cc(Cl)c1
EC50 [23]: 0.007 µM

CCCCCn1c(C)c(Br)c(C(=O)c2cccc3ccccc23)c1C
EC50 (Cannabinoid receptor 1): 0.0133 µM | EC50 (Cannabinoid receptor 2): 0.0068 µM

CCOC(=O)c1cc(-c2ccc([N+](=O)[O-])cc2)n(-c2ccc(C3=NNC(=O)CC3)cc2)c1C
Activity (Rattus norvegicus [24]): 70.3 mmHg

CCOc1c([N+](=O)[O-])c2n(c1C)CCN2Cc1cnc(Cl)s1
mortality [25]: 50%
